Laboratory results from US20070244009A1, “Agent for Inhibiting Bolting Induction and/or Floral-Bud Differentiation in Plants” (National University Corporation Hokkaido Universit, priority 2004, published 2007).
Entries after “also recorded” stand apart in the source; their conditions may differ.

What was measured:
[1] = test system: spinach (Spinacia oleracea L.); assay: Floral differentiation of spinach after foliar spraying; format: in vivo; conditions: 10^-3 M foliar spray; for Floral Differentiation Rate (%) Average: mean of three tests
Procedure: (§1) In other words, while they searched for the substance having bolting induction inhibition and/or floral differentiation inhibition activities, they examine the effect of theobroxide on stem elongation and differentiation of floral-buds in spinach (long-day plant), after spraying theobroxide on the surfaces of spinach leaves. The day-length conditions examined were long-day (16 hours-light period, 8 hours-dark period), and short-day (10 hours-light period, 14 hours-dark period). The concentration of theobroxide for foliar application is set at 10^−3 M, and testing was started after a preliminary growth (two weeks, long-day condition). The spraying condition was that 5 ml of the solution was sprayed over four weeks every two days after the preliminary growth. As the results, under the short-day condition (bolting non-inducing condition), no difference was observed when compared to the control. Under the long-day condition (bolting induction and floral differentiation condition), the stem elongation of the theobroxide treated plants was suppressed 37% in the fourth week, when compared to that of the control.
(§2) Before the test, spinach was grown for 5 weeks in a growth chamber (NK Systems, Biotron NC350), under a short-day (SD) condition (light period-10 hours/dark period-14 hours) with a peat moss/Pearlite mixture (1:1.5, v/v). A test solution was sprayed on leaves every two days. Water and Hyponex in liquid form (manufactured by Hyponex Japan Co.) were given to the plants every two days and once a week, respectively. The long-day (LD) and short-day (SD) photoperiodic cycles were 16-hour light period/8-hour dark period, and 10-hours light period/14-hour dark period, respectively. The growth chamber was equipped with 20 fluorescent lamps (NEC FL40SEX-N-HG) to provide a light intensity of 90 μmol^−2s^−1, and set at 25 degrees centigrade and the relative humidity of 60%. The test used ten plants for each processing, and was repeated at least three times.
(§3) The theobroxide for the test was isolated from the incubation filtrate of Lasiodiplodia theobromae. The data of NMR, RI and MS were compared with the standard one and their structures were confirmed. Theobroxide was dissolved in distilled water that includes Tween 20 (100 ppm) to adjust its concentration to 10^−3M. To the plants for the control, the same amount of distilled water including 100 ppm of Tween 20 was given. The two kinds of solution were given to leaves of the plants, the total of 5 ml per plant, every two days, using plastic spray bottles. After planting them in advance, 20 boxes were transferred to the LD condition for a LD treatment (10 boxes of which was for control, and the other 10 boxes for the theobroxide treatment). After planting them in advance, 20 boxes were left under the SD for a SD treatment as before (10 boxes of which is for the control, and the other 10 boxes for theobroxide treatment). Stem heights from the bases of stems to the tip of the stems or the inflorescence were measured (Plant Physiol.: 821-827,1971).
In addition, in the tests shown in Table 1, plants were grown under a long-day condition for six weeks. The theobroxide treatment was started after they were transferred to the long-day condition. After six weeks, the plants were collected, and the number of the plants in which floral differentiation took place was counted.

[2] = test system: spinach (Spinacia oleracea L.); assay: Stem elongation (bolting) of spinach after foliar spraying; format: in vivo
Procedure: as §1, §2
as §3, with “After planting them in advance, 20 boxes were transferred to the LD condition for a LD treatment (10 boxes of which was for control, and the other 10 boxes for the theobroxide treatment). After planting them in advance, 20 boxes were left under the SD for a SD treatment as before (10 boxes of which is for the control, and the other 10 boxes for theobroxide treatment).” left out

potato [3] = conditions: culture of a single node section of a potato stem; cited from earlier work
morning glory [4] = conditions: in vivo; cited from earlier work
potato [5] = conditions: solution sprayed to leaflets of potato, non-inducing conditions; cited from earlier work
morning glory [6] = conditions: solution sprayed to leaves of morning glory, non-inducing conditions; cited from earlier work

## CC1=CC(O)C2OC2C1O (stereo not shown) [theobroxide, 3,6-dihydroxy-4,5-epoxy-1-methylcyclohexene]
[1]; long-day condition, six weeks, Test 1
  Floral Differentiation Rate (%) Test 1: 50% (5/10)
[1]; long-day condition, six weeks, Test 2
  Floral Differentiation Rate (%) Test 2: 40% (4/10)
[1]; long-day condition, six weeks
  Floral Differentiation Rate (%) Average: 43.3%
[1]; long-day condition, six weeks, listed as Theobroxide
  Floral Differentiation Rate (%) Average: 43.3%
[1]; short-day condition
  difference in flower formation compared to the control: no difference; also recorded: not apparent difference
[2]; induction condition (LD), theobroxide treatment
  stem elongation (FIGS. 3A-B, FIG. 4), result in words: stem elongation was suppressed
[2]; long-day (LD) condition, 10^-3 M foliar spray, after six weeks
  suppression effect on stem lengths compared to the control: 37%
[2]; long-day condition, 10^-3 M foliar spray, 5 ml every two days, fourth week
  suppression of stem elongation compared to the control: 37%
[2]; short-day condition (bolting non-inducing), 10^-3 M foliar spray
  difference in stem lengths compared to the control: no difference; also recorded: not apparent difference
Potato [3]
  potato tuber formation activity: strong potato tuber formation activity
Morning glory [4]
  effect on stem elongation of morning glory: inhibitory effect
Potato [5]
  potato tuber formation: strong potato tuber formation
Morning glory [6]
  flower buds inducing activity: flower buds inducing activity
